The numbers were not newly measured in patent publication US6572638B1, “Method of controlling body temperature while inhibiting thermoregulatory responses” (Radiant Medical, Inc., priority 1999, dated 2003), which cites them from elsewhere.

The subject of the data set is shivering threshold. To be noted: patients at normal temperature warmed until sweating then cooled until shivering occurred; Talke, et al., Anesthesiology 87(4):835-841, 1997.

Take `Cc1cccc([C@H](C)c2cnc[nH]2)c1C` [dexmedetomidine]: the “effect on shivering threshold” value is reported as “able to lower the shivering threshold”.
For the compound `Clc1cccc(Cl)c1N=C1NCCN1` [clonidine], the “effect on shivering threshold” value is “able to lower the shivering threshold”.
